What was measured:
[1] = target: T1, acetyl-CoA carboxylase (ACC) (Rattus norvegicus, UniProt P11497); assay: Measurement of ACC inhibition activity (14C-bicarbonate incorporation, ACC purified from rat liver); assay type: biochemical; conditions: 5.6 × 10^−6 M compound; ACC purified from SD rat liver
T1 construct: subjected to decapitation and bloodletting under ether anesthesia to quickly take out the liver; from tissue; host or cells: rat liver (male SD rat, fasted then fed a high-sucrose feed)
Description: After 2 days of fasting, a male SD rat of 12 weeks of age was allowed to feed on a high sucrose feed (67% sucrose, 17.1% casein, 9.8% cellulose, 5% sodium chloride, 0.1% choline chloride and 1% vitamins) for 2 days and then subjected to decapitation and bloodletting under ether anesthesia to quickly take out the liver. The thus obtained liver was sliced in an ice-cooled buffer A (225 mM mannitol, 75 mM sucrose, 10 mM Tris/HCl (pH 7.5), 0.05 mM EDTA-2Na, 5 mM potassium citrate, 2.5 mM MnCl2, 10 mg/l aprotinin, 10 mg/l leupeptin and 10 mg/l antitrypsin) and then, after removal of moisture, adjusted to 5 ml/g by adding the buffer A and homogenized for 4 minutes using Polytron homogenizer. This was centrifuged for 10 minutes at 1,000 g and then the resulting supernatant was subjected to 10 minutes of high speed centrifugation at 17,000 g.
Ammonium sulfate was added to the thus obtained supernatant to a final concentration of 35%, and the mixture was stirred for 45 minutes and then subjected to 10 minutes of high speed centrifugation at 17,000 g. The thus obtained precipitate was mixed with 100 ml of a buffer B (100 mM Tris/HCl (pH 7.5), 0.5 M NaCl, 1 mM EDTA-2Na, 0.1 mM DTT, 10% glycerol, 10 mg/l aprotinin, 10 mg/l leupeptin and 10 mg/l antitrypsin) and subjected to 20 minutes of ultracentrifugation at 40,000, and the resulting supernatant was dialyzed overnight against 150 volumes of a buffer C (100 mM Tris/HCl (pH 7.5), 0.5 M NaCl, 1 mM EDTA-2Na, 0.1 mM DTT and 10% glycerol) and then filtered through a 5 μm filter. The filtrate was applied to a biotin affinity column, washed with the buffer B and then eluted with the buffer B supplemented with 5 mM biotin.
2. Measurement of ACC Inhibition Activity
Each of the compounds produced in the Examples was dissolved in DMSO, and the solution was put into a glass vial, mixed with 250 μl of an ACC-containing reagent 1 (40 mM Tris/HCl (pH 7.5), 40 mM MgCl2, 40 mM sodium citrate, 2 mM DTT and 100 μg/ml fatty acid-free BSA),incubated at 37° C. for 30 minutes in a thermostatic chamber, cooled with ice, mixed with 250 μl of a reagent 2 (40 mM Tris/HCl (pH 7.5), 2 mM DTT, 8 mM ATP and 0.5 mM acetyl-CoA) containing 74 kBq of NaH^14CO3, again incubated at 37° C. for 10 minutes in a thermostatic chamber and then mixed with 0.1 ml of 1 N HCl to terminate the reaction. After complete removal of moisture in the glass vial under a reduced pressure, an emulsified scintillator (Cleasol I) was added to the glass vial, and the ^14C radioactivity was measured using a liquid scintillation counter. […]
Inhibition activity ratio (%)=(1−radioactivity when a drug to be tested is added/radioactivity when the drug to be rested is not added)×100

HepG2 cells = assay: Measurement of intracellular fatty acid synthesis inhibition activity (FA biosynthesis from [14C]-glucose); assay type: cell-based; conditions: Homo sapiens, 3.0 × 10^−5 M compound, 3 hours culture with [14C]-glucose
Description: Measurement of Intracellular Fatty Acid Synthesis Inhibition Activity (FA Biosynthesis Inhibition Activity)
Each of the compounds produced in the Examples was dissolved in DMSO and added to an experimental culture medium (DMEM; 0.05 μg/ml insulin, 0.1 mg/ml glucose and 18.5 kBq/ml [^14C]-glucose). The HepG2 cells were adjusted to a density of 0.75×10^6 cells/ml, inoculated into a 12 well plate in an amount of 1 ml/well and cultured overnight at 37° C. in an atmosphere of 5% CO2 (culture medium: DMEM, […] and 10% FBS), and the resulting cells were washed twice with PBS(−) buffer, mixed with the experimental culture medium in an amount of 0.5 ml/well and then cultured at 37° C. for 3 hours in an atmosphere of 5% CO2. After the culturing, the cells were washed twice with ice-cooled PBS(−) buffer and peeled off, and lipids were extracted from the resulting cells with a lipid extraction solution (chloroform:methanol=2:1). The extract was mixed with 2.5 ml of ethanol and 0.1 ml of 33% potassium hydroxide and incubated at 70° C. for 1 hour. Lipids were again extracted from the reaction mixture, and the extract was applied to a silica gel thin layer plate. This was developed with a developing solution (hexane:diethyl ether:acetic acid=80:20:1) and then the fatty acid iodine-coloring part was collected to measure its radioactivity using a liquid scintillation counter. The inhibition activity % (3.0×10^−5 M) of each compound was calculated.

| SMILES | inhibition at 5.6 µM [1] [%] | melting point [°C] | inhibition at 30 µM (HepG2 cells) [%] |
| --- | --- | --- | --- |
| CCCCCCCCCC(=O)NS(=O)(=O)c1ccccc1NC(=O)c1cccc(OCc2ccc(C(C)(C)C)cc2)c1 [Example 31, N-[2-[3-(4-t-Butylbenzyloxy)benzamido]benzenesulfonyl]decanamide] | 67.6 | 132 to 133 | 66.4 |
| CCCCCC(=O)NS(=O)(=O)c1ccccc1NC(=O)c1cccc(OCc2ccc(C(C)(C)C)cc2)c1 [Example 30, N-[2-[3-(4-t-Butylbenzyloxy)benzamido]benzenesulfonyl]hexanamide] | 53.2 | 163 to 164 | 87.1 |
| C/C=C/C=C/C(=O)NS(=O)(=O)c1ccccc1NC(=O)c1ccc(C#Cc2ccccc2)cc1 [Example 43, trans-N-[2-(4-Phenylethynylbenzamido)benzenesulfonyl]-2,4-hexadienamide] | 54.3 | 208 to 209 | 92.3 |
| CC(C)(C)c1ccc(COc2cccc(C(=O)Nc3ccccc3S(=O)(=O)NC(=O)/C=C/c3ccccc3)c2)cc1 [Example 13, N-[2-[3-(4-t-Butylbenzyloxy)benzamido]benzenesulfonyl]cinnamamide] | 79.5 | 110 to 111 | 38.1 |
| CCCCCCCCCC(=O)NS(=O)(=O)c1ccccc1NC(=O)c1ccc(C#Cc2ccccc2)cc1 [Example 40, N-[2-(4-Phenylethynylbenzamido)benzenesulfonyl]decanamide] | 76 | 155 to 156 | 57.4 |

The next lines start with results.

| inhibition at 5.6 µM [1] [%] | melting point [°C] | SMILES | inhibition at 30 µM (HepG2 cells) [%] |
| --- | --- | --- | --- |
| 79.9 | 129 to 130 | CCCCCCCCCC(=O)NS(=O)(=O)c1ccccc1NC(=O)c1ccc([N+](=O)[O-])c(OCc2ccccc2)c1 [Example 16, N-[2-(3-Benzyloxy-4-nitrobenzamido)benzenesulfonyl]decanamide] | 94.3 |
| 83.3 | 159 to 161 | CCCCCCCCCC(=O)NS(=O)(=O)c1ccccc1NC(=O)c1cccc(OCc2ccc(Cl)cc2)c1 [Example 19, N-[2-[3-(4-Chlorobenzyloxy)benzamido]benzenesulfonyl]decanamide] | 90.5 |
| 65 | 85 to 86 | CCCCCCCCCC(=O)NS(=O)(=O)c1ccccc1NC(=O)c1cccc(OCc2ccccc2)c1 [Example 9, N-[2-(3-Benzyloxybenzamido)benzenesulfonyl]decanamide] | 86.8 |
| 81.6 | 148 to 149 | CCCCCCCCCC(=O)NS(=O)(=O)c1ccccc1NC(=O)c1cccc(OCc2ccc(OC)cc2)c1 [Example 25, N-[2-[3-(4-methoxybenzyloxy)benzamido]benzenesulfonyl]decanamide] | 92 |
| 81.3 | 164 | CCCCCCCCCC(=O)NS(=O)(=O)c1ccccc1NC(=O)c1cccc(OCc2ccc(C(F)(F)F)cc2)c1 [Example 34, N-[2-[3-(4-Trifluoromethylbenzyloxy)benzamido]benzenesulfonyl]decanamide] | 87.7 |

— patent publication US20030162818A1, “Acylsulfonamide derivative” (AJINOMOTO CO. INC., priority 1997, published 2003)
